Measured values reported in patent US8883963B2 (Cadila Healthcare Limited, priority 2007, dated 2014).

Experiments:
[1] = system: RIN5F (Rat Insulinoma) cells; assay: In vitro glucose-dependent insulin secretion (RIN5F cell assay screening protocol); assay type: cell-based; details: 16.7 mM glucose load
[2] = target: T1, Human GLP-1 receptor (Homo sapiens, UniProt P43220); assay: In vitro Human GLP-1 R agonist activity (cyclic AMP determination) in CHO/human GLP1R cells; assay type: cell-based
T1 construct: The full-length cDNA was cloned in pcDNA3.1(+); expressed in transfected cells
T1 sequence (P43220 24-463): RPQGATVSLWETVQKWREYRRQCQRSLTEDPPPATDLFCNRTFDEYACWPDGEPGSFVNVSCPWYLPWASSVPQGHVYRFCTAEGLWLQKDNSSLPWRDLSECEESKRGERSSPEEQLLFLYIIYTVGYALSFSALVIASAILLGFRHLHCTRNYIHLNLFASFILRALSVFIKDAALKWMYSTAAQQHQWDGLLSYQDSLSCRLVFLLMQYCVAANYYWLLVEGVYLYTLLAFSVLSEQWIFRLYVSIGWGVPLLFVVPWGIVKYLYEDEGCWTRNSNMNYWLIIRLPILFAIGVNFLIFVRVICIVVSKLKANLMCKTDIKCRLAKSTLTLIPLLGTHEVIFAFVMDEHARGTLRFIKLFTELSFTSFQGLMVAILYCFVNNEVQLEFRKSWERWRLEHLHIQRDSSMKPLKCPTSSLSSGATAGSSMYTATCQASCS

[3] = target: T2, human glucagon receptor (Homo sapiens, UniProt P47871); assay: In vitro human glucagon antagonist activity (inhibition of cAMP production) in CHO/human glucagon R cells; assay type: cell-based; details: with saturated concentration of glucagon peptide
T2 construct: The full-length cDNA was cloned in pcDNA3.1 (Invitrogen); expressed in transfected cells
T2 sequence (P47871 26-477): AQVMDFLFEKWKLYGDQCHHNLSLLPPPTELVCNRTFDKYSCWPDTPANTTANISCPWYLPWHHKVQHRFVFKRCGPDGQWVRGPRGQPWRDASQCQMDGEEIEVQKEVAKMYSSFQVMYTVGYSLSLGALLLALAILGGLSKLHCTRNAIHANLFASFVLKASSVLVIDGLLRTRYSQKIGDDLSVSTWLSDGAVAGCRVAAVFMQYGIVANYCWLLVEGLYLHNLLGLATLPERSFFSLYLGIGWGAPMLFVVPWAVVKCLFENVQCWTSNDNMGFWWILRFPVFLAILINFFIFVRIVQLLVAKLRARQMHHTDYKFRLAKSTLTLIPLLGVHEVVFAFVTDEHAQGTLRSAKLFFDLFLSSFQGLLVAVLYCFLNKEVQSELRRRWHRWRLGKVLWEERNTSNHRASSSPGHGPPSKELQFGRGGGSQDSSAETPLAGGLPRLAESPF

[4] = target: DPP IV (Homo sapiens, UniProt P27487); assay: Stability against DPP IV enzyme; assay type: in vitro ADME; details: 37° C.; for % degradation of peptidomimetics in 24 h when incubated with DPP-IV enzyme: 2 μM peptidomimetic; for half-life at 2 μM: DPP IV enzyme, pH 7.8, 2 μM peptidomimetic, read-out: half-life (t1/2) when incubated with DPP-IV enzyme
Sequence of DPP IV (P27487 whole entry, species assumed): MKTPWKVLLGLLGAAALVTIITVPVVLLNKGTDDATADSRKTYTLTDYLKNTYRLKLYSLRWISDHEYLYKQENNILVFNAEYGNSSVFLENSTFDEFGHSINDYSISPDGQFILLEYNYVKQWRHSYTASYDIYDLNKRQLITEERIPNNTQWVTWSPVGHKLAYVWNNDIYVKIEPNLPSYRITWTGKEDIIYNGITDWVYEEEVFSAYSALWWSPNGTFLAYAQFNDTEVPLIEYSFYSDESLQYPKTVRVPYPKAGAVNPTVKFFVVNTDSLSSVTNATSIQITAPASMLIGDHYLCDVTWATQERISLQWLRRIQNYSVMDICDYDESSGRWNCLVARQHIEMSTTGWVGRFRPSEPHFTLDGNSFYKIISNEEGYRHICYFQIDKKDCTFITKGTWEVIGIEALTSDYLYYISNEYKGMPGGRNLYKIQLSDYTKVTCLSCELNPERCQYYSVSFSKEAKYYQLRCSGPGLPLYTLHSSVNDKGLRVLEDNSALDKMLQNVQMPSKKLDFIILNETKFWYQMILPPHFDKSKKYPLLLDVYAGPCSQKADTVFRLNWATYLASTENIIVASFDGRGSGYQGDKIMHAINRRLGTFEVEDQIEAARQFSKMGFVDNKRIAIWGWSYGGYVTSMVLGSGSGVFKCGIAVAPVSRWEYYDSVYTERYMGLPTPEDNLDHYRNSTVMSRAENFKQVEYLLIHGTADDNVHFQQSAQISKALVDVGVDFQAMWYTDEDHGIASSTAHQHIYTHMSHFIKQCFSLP
Description: (§1) Reactions were terminated by the addition of TFA/H2O (15 mL, 10% (v/v)). […] The column was equilibrated with TFA/H20, at a flow rate of 1 mL/min.

[5] = Stability in human plasma; assay type: in vitro ADME; details: 2 μM peptidomimetic, pooled human plasma, 37° C.; for half-life at 2 μM: pH 7.8, read-out: half-life (t1/2) when incubated with human plasma
Description: as §1

[6] = Stability in simulated gastric fluid; assay type: in vitro ADME; details: 2 μM peptidomimetic, simulated gastric fluid pH 1.5, 37° C.; for half-life at 2 μM: read-out: half-life (t1/2) when incubated with simulated gastric fluid
Description: as §1

[7] = Stability in simulated intestinal fluid; assay type: in vitro ADME; details: 2 μM peptidomimetic, simulated intestinal fluid pH 7.5, 37° C.; for half-life at 2 μM: read-out: half-life (t1/2) when incubated with simulated intestinal fluid
Description: as §1

[8] = Stability in liver microsomes; assay type: in vitro ADME; details: 2 μM peptidomimetic, human liver microsomes, 37° C.; for half-life at 2 μM: pH 7.8, read-out: half-life (t1/2) when incubated with liver microsomes
Description: as §1

Compound | Insulin secretion ([1]; 0.1 nM test compd.) | Insulin secretion ([1]; 1 nM test compd.) | Insulin secretion ([1]; 10 nM test compd.) | Human GLP-1 R activity (cAMP release), % activity with respect to control ([2]; 1 nM test compound) | Human GLP-1 R activity (cAMP release), % activity with respect to control ([2]; 10 nM test compound) | Human GLP-1 R activity (cAMP release), % activity with respect to control ([2]; 100 nM test compound) | Human GLP-1 R activity (cAMP release), % activity with respect to control ([2]; 1 μM test compound) | Human GLP-1 R activity (cAMP release), % activity with respect to control ([2]; 10 μM test compound) | Human Glucagon receptor antagonistic activity shown as inhibition of cAMP production of Glucagon peptide ([3]; 1 nM test compound) | Human Glucagon receptor antagonistic activity shown as inhibition of cAMP production of Glucagon peptide ([3]; 10 nM test compound) | Human Glucagon receptor antagonistic activity shown as inhibition of cAMP production of Glucagon peptide ([3]; 100 nM test compound) | Human Glucagon receptor antagonistic activity shown as inhibition of cAMP production of Glucagon peptide ([3]; 1 μM test compound) | Human Glucagon receptor antagonistic activity shown as inhibition of cAMP production of Glucagon peptide ([3]; 10 μM test compound) | % degradation of peptidomimetics in 24 h when incubated with DPP-IV enzyme [4] | half-life at 2 μM [4] | % degradation of peptidomimetics in 24 h when incubated with human plasma [5] | half-life at 2 μM [5] | % degradation of peptidomimetics in 24 h when incubated with simulated gastric fluid [6] | % degradation of peptidomimetics in 24 h when incubated with simulated intestinal fluid [7] | % degradation of peptidomimetics in 24 h when incubated with liver microsomes [8] | further results
CCc1cc(OC)ccc1-c1ccc(CC(NC(=O)[C@H](CC(=O)O)NC(=O)[C@H](CO)NC(=O)[C@@H](NC(=O)C(C)(Cc2ccccc2F)NC(=O)[C@@H](NC(=O)CNC(=O)C(CCC#N)NC(=O)C(C)(C)NC(=O)[C@@H](N)Cc2c[nH]cn2)[C@H](C)O)[C@H](C)O)C(=S)NC(CCCc2ccccc2)C(N)=O)cc1 (single isomer, unassigned) [compound 166] | 15.4 ± 0.14 pg/µg/h | 21.2 ± 0.18 pg/µg/h | 35.6 ± 0.17 pg/µg/h | 96 ± 0.02% | 99 ± 0.46% | 99 ± 0.41% | 99 ± 0.66% | 99 ± 0.03% | 19 ± 0.03 pmol/ml/μg prt | 17 ± 0.08 pmol/ml/μg prt | 15 ± 0.01 pmol/ml/μg prt | 14 ± 0.02 pmol/ml/μg prt | 12 ± 0.11 pmol/ml/μg prt | 86% | 9 h | 70% | 8 h | 15% | 41% | 77% | half-life (t1/2) when incubated with simulated gastric fluid [6]: (8) h; half-life (t1/2) when incubated with simulated intestinal fluid [7]: (6) h; half-life at 2 μM [8]: 1 h
CCc1cc(OC)ccc1-c1ccc(CC(NC(=O)[C@H](CC(=O)O)NC(=O)[C@H](CO)NC(=O)[C@@H](NC(=O)C(C)(Cc2ccccc2F)NC(=O)[C@@H](NC(=O)CNC(=O)C(CCC#N)NC(=O)C(C)(C)NC(=O)[C@@H](N)Cc2c[nH]cn2)[C@@H](C)O)[C@H](C)O)C(=O)NC(CCCc2ccccc2F)C(N)=O)cc1 (single isomer, unassigned) [compound 120] | 16.3 ± 0.15 pg/µg/h | 22.4 ± 0.21 pg/µg/h | 36.2 ± 0.11 pg/µg/h | 99 ± 0.12% | 99 ± 0.15% | 99 ± 0.18% | 99 ± 0.03% | 99 ± 0.09% | 0 pmol/ml/μg prt | 0 pmol/ml/μg prt | 0 pmol/ml/μg prt | 0 pmol/ml/μg prt | 0 pmol/ml/μg prt | 00% | > 24 h | 00% | > 24 h | 41% | 00% | 80% | half-life at 2 μM [6]: 4 h; half-life at 2 μM [7]: > 24 h; half-life at 2 μM [8]: 2 h
CCc1cc(OC)ccc1-c1ccc(CC(NC(=O)[C@H](CC(=O)O)NC(=O)[C@H](CO)NC(=O)[C@@H](NC(=O)[C@H](Cc2ccccc2)NC(=O)[C@@H](NC(=O)CNC(=O)C(CCC#N)NC(=O)C(C)(C)NC(=O)[C@@H](N)Cc2c[nH]cn2)[C@@H](C)O)[C@@H](C)O)C(=O)NC(CCCc2ccc(OC)cc2Cl)C(N)=O)cc1 (single isomer, unassigned) [compound 84] | 12.1 ± 0.42 pg/µg/h | 14.6 ± 0.41 pg/µg/h | 27.8 ± 0.46 pg/µg/h | 38 ± 0.11% | 77 ± 0.16% | 85 ± 0.11% | 94 ± 0.08% | 97 ± 0.05% | 4 ± 0.01 pmol/ml/μg prt | 2 ± 0.17 pmol/ml/μg prt | 0 pmol/ml/μg prt | 0 pmol/ml/μg prt | 0 pmol/ml/μg prt | 00% | > 24 h | 00% | > 24 h | 45% | 00% | 85% | half-life at 2 μM [6]: 4 h; half-life at 2 μM [7]: > 24 h; half-life at 2 μM [8]: 2 h
CCc1cc(OC)ccc1-c1ccc(CC(C(=O)N(C)C(CCCc2ccccc2)C(N)=O)N(C)C(=O)[C@H](CC(=O)O)N(C)C(=O)[C@H](CO)NC(=O)[C@@H](NC(=O)C(C)(Cc2ccccc2F)NC(=O)[C@@H](NC(=O)CNC(=O)C(CCC#N)NC(=O)C(C)(C)NC(=O)[C@@H](N)Cc2c[nH]cn2)[C@H](C)O)[C@H](C)O)cc1 (single isomer, unassigned) [compound 154] | 16.1 ± 0.22 pg/µg/h | 22.1 ± 0.26 pg/µg/h | 36.0 ± 0.36 pg/µg/h | 60 ± 0.12% | 92 ± 0.15% | 98 ± 0.18% | 99 ± 0.03% | 99 ± 0.09% | 9 ± 0.11 pmol/ml/μg prt | 6 ± 0.12 pmol/ml/μg prt | 5 ± 0.14 pmol/ml/μg prt | 3 ± 0.22 pmol/ml/μg prt | 0 pmol/ml/μg prt | 74% | 9 h | 75% | 8 h | 12% | 46% | 83% | half-life (t1/2) when incubated with simulated gastric fluid [6]: (8) h; half-life (t1/2) when incubated with simulated intestinal fluid [7]: (6) h; half-life at 2 μM [8]: 1 h
